According to patent US6911432B2, “Drugs, foods or drinks with the use of algae-derived physiologically active substances” (priority 1997, dated 2005):

Columns and labels:
HT-1080 = test: antiproliferation assay, MTT method; format: cell-based; settings: for dilution rate of the dilution added to the group whose absorbance at 590 nm was less than one-half of that of the control group: dilution rate 1 corresponds to 5 mM in medium; for IC50: read-out: IC50 (concentration required for 50% proliferation inhibitory rate)
Protocol: (§1) Each fraction was sterilized by filtration and its 10 μl portion was placed in a well of a 96 well microtiter plate. […] The cell morphology was observed under an optical microscope. […] The absorbance at 590 nm was measured to determine a cell proliferation rate. (2) A 50 mM solution of agarobiose, agarotetraose or agarohexaose obtained in Example 3-(1) was sterilized by filtration and diluted 2-, 4-, 8-, 16-, 32-, 64- and 128-folds with sterilized water. […] [table] The number in Table 3 represents the dilution rate of the dilution added to the group whose absorbance at 590 nm was less than one-half of that of the control group to which water was added. […] Then, for agarobiose, agarotetraose and agarohexaose, the concentrations required for 50% proliferation inhibitory rate (IC50) are calculated based on the change in the absorbance at 590 nm, and are shown in Table 4.

A-172 = test: antiproliferation assay, MTT method; format: cell-based; settings: for dilution rate of the dilution added to the group whose absorbance at 590 nm was less than one-half of that of the control group: dilution rate 1 corresponds to 5 mM in medium; for IC50: read-out: IC50 (concentration required for 50% proliferation inhibitory rate)
Protocol: as §1

WiDr = test: antiproliferation assay, MTT method; format: cell-based, human; settings: for dilution rate of the dilution added to the group whose absorbance at 590 nm was less than one-half of that of the control group: dilution rate 1 corresponds to 5 mM in medium; for IC50: read-out: IC50 (concentration required for 50% proliferation inhibitory rate)
Protocol: as §1

HepG2 = test: antiproliferation assay, MTT method; format: cell-based, human; settings: for dilution rate of the dilution added to the group whose absorbance at 590 nm was less than one-half of that of the control group: dilution rate 1 corresponds to 5 mM in medium; for IC50: read-out: IC50 (concentration required for 50% proliferation inhibitory rate)
Protocol: as §1

T-47D = test: antiproliferation assay, MTT method; format: cell-based, human; settings: for dilution rate of the dilution added to the group whose absorbance at 590 nm was less than one-half of that of the control group: dilution rate 1 corresponds to 5 mM in medium; for IC50: read-out: IC50 (concentration required for 50% proliferation inhibitory rate)
Protocol: as §1

MCF7 = test: antiproliferation assay, MTT method; format: cell-based, human; settings: for dilution rate of the dilution added to the group whose absorbance at 590 nm was less than one-half of that of the control group: dilution rate 1 corresponds to 5 mM in medium; for IC50: read-out: IC50 (concentration required for 50% proliferation inhibitory rate)
Protocol: as §1

RPMI1788 = test: antiproliferation assay, MTT method; format: cell-based, human; settings: for dilution rate of the dilution added to the group whose absorbance at 590 nm was less than one-half of that of the control group: dilution rate 1 corresponds to 5 mM in medium; for IC50: read-out: IC50 (concentration required for 50% proliferation inhibitory rate)
Protocol: as §1

A549 = test: antiproliferation assay, MTT method; format: cell-based, human; settings: for dilution rate of the dilution added to the group whose absorbance at 590 nm was less than one-half of that of the control group: dilution rate 1 corresponds to 5 mM in medium; for IC50: read-out: IC50 (concentration required for 50% proliferation inhibitory rate)
Protocol: as §1

MKN45 = test: antiproliferation assay, MTT method; format: cell-based, human; settings: for dilution rate of the dilution added to the group whose absorbance at 590 nm was less than one-half of that of the control group: dilution rate 1 corresponds to 5 mM in medium; for IC50: read-out: IC50 (concentration required for 50% proliferation inhibitory rate)
Protocol: as §1

[1] = test system: lipid peroxide radical production; test: inhibition of lipid peroxide radical production (tert-butyl hydroperoxide, bacterial growth readout); format: cell-based, Staphylococcus aureus 3A; set-up: key to growth of the bacterium (activity of inhibiting lipid peroxide radical production): + represents the sample in which the growth of the bacterium was observed; −represents the sample in which the growth of the bacterium was not observed
Protocol: Staphylococcus aureus 3A (National Collection Of Type Culture, NCTC 8319) was inoculated into 5 ml of brain heart infusion medium (manufactured by Difco, 0037-17-8) and cultured at 37° C. overnight. The bacterial cells were collected by centrifugation, washed with phosphate buffered saline 3 times and then suspended in phosphate buffered saline at a concentration of 1×10^7 colony forming units/ml. A mixture of 100 μl of the cell suspension, 100 μl of an aqueous sample solution, 100 μl of aqueous 1 mg/ml methemoglobin (manufactured by Sigma M9250) solution, 600 μl of phosphated buffered saline and 100 μl of aqueous 50 mM tert-butyl hydroperoxide (manufactured by Katayama Kagaku, 03-4990) solution were reacted at 37° C. for 30 minutes. To the reaction mixture was added 1 ml of 2×NMP medium [prepared by dissolving 8 g of nutrient broth (manufactured by Difco, 0003-01-6), 5 g of trypton (manufactured by Difco, 0123-17-3), 5 g of NaCl, 10 g of mannitol (manufactured by Nacalai Tesque, 213-03) and 0.035 g of phenol red (manufactured by Nacalai Tesque, 268-07) in distilled water to make the volume up to 500 ml. The pH was adjusted to 7.5 with NaOH and then the mixture was sterilized by filtration] to stop the reaction. The resultant mixture was diluted every 3-folds with NMP medium (prepared by diluting 2×NMP medium 2-folds with sterilized water) to prepare 12 serial dilutions and 160 μl of each dilution was placed in each well of a 96-well microtiter plate. The plate was incubated at 37° C. overnight.
In Table 14, + represents the sample in which the growth of the bacterium was observed, and −represents the sample in which the growth of the bacterium was not observed. The concentration shown in the uppermost line of the table is that of the sample in the reaction mixture in which the sample was reacted with tert-butyl hydroperoxide and the bacterial cells at 37° C. for 30 minutes.

HL-60 cells [2] = test: viable cell count with Trypan Blue under a microscope; format: cell-based, human; settings: final concentration 250 μM or 125 μM; for number of viable cells as compared with the group to which water was added: 24 hours or 48 hours
Protocol: Agarobiose, agarotetraose, agarohexaose and agarooctaose (hereinafter, sometimes, these oligosuccharaides are referred to as agarooligosaccharides) obtained in Example 5 were dissolved in water at a concentration of 2.5 mM or 1.25 mM separately, and were sterilized by filtration. HL-60 cells were suspended in RPMI 1640 medium containing 10% fetal bovine serum at a concentration of 2.5×10^5 cells/4.5 ml and to this suspension was added 0.5 ml of each of the oligosaccharide solutions. The resultant mixture were incubated with 5% CO2 at 37° C. for 24 hours or 48 hours. A part of the cell culture was taken up, followed by addition of Trypan Blue thereto and observing under a microscope to count the number of viable cells.
That is, FIG. 14 illustrates the relation between the incubation time and the number of viable cells when HL-60 cells were cultured with addition of one of the oligosaccharides at the final concentration of 250 μM. FIG. 15 illustrates the relation between the incubation time and the number of viable cells when HL-60 cells were cultured with addition of one of the oligosaccharides at the final concentration of 125 μM. In FIGS. 14 and 15, the horizontal axes represent the incubation time (hrs.) and the vertical axes represent the number of viable cells (× 10^5/5 ml). The closed circle (●) represents the addition of water (control), the open diamond (⋄) represents the addition of agarobiose, the open circle (◯) represents the addition of agarotetraose, the open triangle (Δ) represents the addition of agarohexaose and the open square (□) represents the addition of agarooctaose.

HL-60 cells [3] = test: antiproliferation assay, MTT method, absorbance at 590 nm; format: cell-based, human; settings: for dilution rate of the dilution added to the group whose absorbance at 590 nm was less than one-half of that of the control group: 50 mM solution diluted 2- to 128-fold, dilution rate 1 corresponds to 5 mM in the cell culture medium; for IC50: read-out: IC50 (concentration required for 50% proliferation inhibitory rate); for antiproliferation activity against HL-60 cells (in words): preparations and fractions, compared with control to which water was added
iNOS = iNOS expression by western blotting and RT-PCR; format: cell-based; settings: protein level by western blotting, messenger RNA level by RT-PCR
Protocol: The confirmation was carried out at protein level by western blotting and at messenger RNA level by RT-PCR. That is, the compounds used in the present invention are useful for treating and preventing diseases that require inhibition of NO production by inhibiting expression of iNOS which is overexpressed by various factors to produce excess NO.

[4] = 0.1 mM sample in the reaction mixture
[5] = 1 mM sample in the reaction mixture
[6] = HL-60, after reaction with L-cysteine at 37° C. for 1 hour
[7] = HL-60, after reaction with L-cysteine at 37° C. for 16 hours
[8] = HL-60, after reaction with L-lysine at 37° C. for 16 hours

Compound	dilution rate of the dilution added to the group whose absorbance at 590 nm was less than one-half of that of the control group (HT-1080)	IC50 (HT-1080) [µM]	dilution rate of the dilution added to the group whose absorbance at 590 nm was less than one-half of that of the control group (A-172)	IC50 (A-172) [µM]	dilution rate of the dilution added to the group whose absorbance at 590 nm was less than one-half of that of the control group (WiDr)	IC50 (WiDr) [µM]	dilution rate of the dilution added to the group whose absorbance at 590 nm was less than one-half of that of the control group (HepG2)	IC50 (HepG2) [µM]	dilution rate of the dilution added to the group whose absorbance at 590 nm was less than one-half of that of the control group (T-47D)	IC50 (T-47D) [µM]	dilution rate of the dilution added to the group whose absorbance at 590 nm was less than one-half of that of the control group (MCF7)	IC50 (MCF7) [µM]	dilution rate of the dilution added to the group whose absorbance at 590 nm was less than one-half of that of the control group (RPMI1788)	IC50 (RPMI1788) [µM]	dilution rate of the dilution added to the group whose absorbance at 590 nm was less than one-half of that of the control group (A549)	IC50 (A549) [µM]	dilution rate of the dilution added to the group whose absorbance at 590 nm was less than one-half of that of the control group (MKN45)	IC50 (MKN45) [µM]	activity of inhibiting lipid peroxide radical production (in words) [1]	growth of the bacterium (activity of inhibiting lipid peroxide radical production) [1, 4]	other results
OC[C@H]1O[C@@H](O[C@H]2[C@H]3OC[C@@H]2OC(O)[C@H]3O)[C@H](O)[C@@H](O)[C@H]1O (mixture of isomers) [Agarobiose, agarobiose]	8	317	16	289	8	405	8	652	16	210	16	274	64	44	8	570	8	344	strong activity	+	growth of the bacterium (activity of inhibiting lipid peroxide radical production) [1, 5]: +; apoptosis corpuscles (HL-60 cells [2]): apoptosis corpuscles were observed; number of viable cells as compared with the group to which water was added (HL-60 cells [2]): decreased; dilution rate of the dilution added to the group whose absorbance at 590 nm was less than one-half of that of the control group (HL-60 cells [3]; HL-60): 32; antiproliferation activity relative to the same concentration of the unreacted saccharide (HL-60 cells [3]; [6]): 1/10; antiproliferation activity relative to the same concentration of the unreacted saccharide (HL-60 cells [3]; [7]): 1/10; antiproliferation activity relative to the same concentration of the unreacted saccharide (HL-60 cells [3]; [8]): 1/10; cell proliferation suppressed as compared with the control group (HL-60 cells [3]; HL-60, agarobiose at 78 μg/ml, 48 hours): about 86%; IC50 (HL-60 cells [3]; HL-60): 170 µM; antiproliferation activity against HL-60 cells (in words) (HL-60 cells [3]; listed as group 4): an antiproliferation activity was observed; antiproliferation activity against HL-60 cells (in words) (HL-60 cells [3]; listed as group 5): an antiproliferation activity was observed; antiproliferation activity against HL-60 cells (in words) (HL-60 cells [3]; listed as peak at the elution time 8.87 min.): had both activities; antiproliferation activity against HL-60 cells (in words) (HL-60 cells [3]; listed as peak at the elution time 9.40 min.): had both activities; inhibition of iNOS expression (iNOS): inhibit this iNOS expression
OC[C@H]1O[C@@H](O[C@H]2[C@H]3OC[C@@H]2O[C@@H](O[C@H]2[C@@H](O)[C@@H](CO)O[C@@H](O[C@H]4[C@H]5OC[C@@H]4OC(O)[C@H]5O)[C@@H]2O)[C@H]3O)[C@H](O)[C@@H](O)[C@H]1O (stereo partly drawn) [Agarotetraose, agarotetraose]	16	216	16	185	8	399	8	413	16	183	16	276	128	28	8	494	16	196	strong activity	−	growth of the bacterium (activity of inhibiting lipid peroxide radical production) [1, 5]: +; apoptosis corpuscles (HL-60 cells [2]): apoptosis corpuscles were observed; number of viable cells as compared with the group to which water was added (HL-60 cells [2]): decreased; dilution rate of the dilution added to the group whose absorbance at 590 nm was less than one-half of that of the control group (HL-60 cells [3]; HL-60): 64; antiproliferation activity relative to the same concentration of the unreacted saccharide (HL-60 cells [3]; [6]): 1/10; antiproliferation activity relative to the same concentration of the unreacted saccharide (HL-60 cells [3]; [7]): 1/10; antiproliferation activity relative to the same concentration of the unreacted saccharide (HL-60 cells [3]; [8]): 1/10; IC50 (HL-60 cells [3]; HL-60): 97 µM; inhibition of iNOS expression (iNOS): inhibit this iNOS expression
